pIC50: −log10 of the molar value.

This experiment addresses T1, hROMK1 (Kir1.1) (Homo sapiens, UniProt P48048).
T1 construct: expressed in transfected cells
T1 sequence (P48048 1-391): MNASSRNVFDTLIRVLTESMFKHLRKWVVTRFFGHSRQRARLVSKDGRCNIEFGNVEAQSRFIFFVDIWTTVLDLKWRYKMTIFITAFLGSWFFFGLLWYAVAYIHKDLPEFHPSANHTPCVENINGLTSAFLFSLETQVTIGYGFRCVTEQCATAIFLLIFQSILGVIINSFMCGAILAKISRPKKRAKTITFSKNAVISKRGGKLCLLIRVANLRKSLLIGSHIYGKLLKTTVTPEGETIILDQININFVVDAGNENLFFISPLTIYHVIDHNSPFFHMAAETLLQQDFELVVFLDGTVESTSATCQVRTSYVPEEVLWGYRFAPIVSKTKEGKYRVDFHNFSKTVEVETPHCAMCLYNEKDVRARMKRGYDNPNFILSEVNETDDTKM
The experiment in a line: ^86Rb^+ Efflux Assay. The class given is cell-based. The note with it: CHO-DHFR- cells stably expressing hROMK1; potency ranges. How it is done:
Several assays may be used to measure functional inhibition of the ROMK channel by compounds of the instant invention. One primary assay that can be used is a functional ^86Rb^+ efflux assay that measures the ability of ROMK to permeate ^86Rb^+, in the absence or presence of test compound. Under control conditions, cells loaded with ^86Rb^+ and incubated in Rb^+-free medium display a time-dependent efflux of the isotope, the rate of which depends on number of functional channels. When cells are incubated in the presence of a channel inhibitor, efflux of ^86Rb^+ is prevented in a concentration-dependent manner, and IC50 values of inhibition by compounds can be accurately determined. This assay has been established with cell lines expressing either human, rat or dog ROMK channels, and can operate in 96- or 384-well format. Importantly, the human, rat, and dog ^86Rb^+ efflux assays can be carried out in the presence of up to 100% serum allowing, therefore, an accurate estimation of the effect of protein binding on the inhibitory activity of compounds of interest. Another ROMK functional assay makes use of the ability of thallium to permeate through open ROMK channels and increase the fluorescence of a dye previously loaded into the cells. Under control conditions, cells loaded with dye and exposed to thallium-containing medium display a time-dependent increase in fluorescence, the rate of which depends on number of functional channels. When cells are incubated in the presence of a channel inhibitor, the increase in fluorescence is attenuated in a concentration-dependent manner, and IC50 values of inhibition by compounds can be accurately determined. This assay has been established with cell lines expressing either human, or rat ROMK channels, and operates in 384-well format. Another assay for evaluation of the compounds of the instant invention and for evaluation of mechanism of action of compounds of Formula I relies on the measurement of the electrical current that is generated as potassium permeates through the channel. For these electrophysiological experiments, three different platforms, IonWorks, QPatch, or manual patch clamp, are used, depending on the experimental protocol under consideration. IonWorks operates in a 384-well format and allows accurate determination of IC50 values for inhibitors.
CHO-DHFR-cells stably expressing hROMK1 (Kir1.1) were grown at 37° C. in a 10% CO2 humidified incubator in Iscove's Modified Dulbecco's Medium (Gibco 12440) supplemented with HT Supplement, Penicillin/Streptomycin/Glutamine, G418 (500 μg/ml) and 10% FBS. Cells were seeded in Sterile and Tissue Culture Treated Packard CulturPlate White Opaque Microplates at a concentration of 5.0E5-7.0E5 cells/ml—PerkinElmer 6005680 (96-well); Corning 3707 (384 well) in complete media containing 1.5 μCi/ml Rubidium-86. Cells were incubated in 37° C.-10% CO2 incubator overnight. On the day of the experiment, the media was removed and cells washed with low K assay buffer. ^86Rb^+ efflux was initiated after addition of assay buffer±test compound followed by 35 min incubation at room temperature. ROMK-sensitive component of efflux was defined in the presence of 10 mM BaCl2. Assay buffer was removed and transferred to a plate and cells were solubilized in the presence of SDS. Radioactivity associated with assay and cell plate was determined.
• 1. Removed cell media and washed cells with low K assay buffer (126.9 mM NaCl, 4.6 mM KCl, 2 mM CaCl2, 1 mM MgCl2, 10 mM Hepes/NaOH; pH 7.4) • 200 μl for 96-well plate; 70 μl for 384-well plate • 2. Added assay buffer (121.5 mM NaCl, 10 mM KCl, 2 mM CaCl2, 1 mM MgCl2, 10 mM Hepes/NaOH; pH 7.4)±test compound to cells • 100 μl for 96-well plate; 50 μl for 384-well plate • 3. Incubated at ambient temperature (22-24° C.) for 35 min • 4.
One may read the pIC50 as the IC50 on a negative log10 scale, so that one unit is a factor of ten. The low end stands for a high IC50, the high end for a low IC50. Molecule `COC(=O)C1(CCc2ccc([N+](=O)[O-])cc2)CCN(CCc2ccc([N+](=O)[O-])cc2)CC1` [Example 1, Methyl 1,4-bis[2-(4-nitrophenyl)ethyl]piperidine-4-carboxylate] showed a pIC50 of at least 6.70.

Turning to `O=[N+]([O-])c1ccc(/C=C/C2CCN(CCc3ccc([N+](=O)[O-])cc3)CC2)cc1` [Example 2, 4-[(E)-2-(4-Nitrophenyl)ethenyl]-1-[2-(4-nitrophenyl)ethyl]piperidine], the pIC50 is at least 6.70.

`O=[N+]([O-])c1ccc(CCC2CCN(CCc3ccc([N+](=O)[O-])cc3)CC2)cc1` [Example 3, 1,4-bis[2-(4-Nitrophenyl)ethyl]piperidine] showed a pIC50 of at least 6.70.

With `O=C(Cc1ccc(-n2cnnn2)cc1)N1CCC(CCc2ccc([N+](=O)[O-])cc2)CC1` [Example 4, 2-(4-(1H-Tetrazol-1-yl)phenyl)-1-(4-(4-nitrophenethyl)piperidin-1-yl)ethanone], the negative logarithm of the IC50 (pIC50) is at least 6.70.

In turn, `O=C(Cc1ccc(-n2cnnn2)cc1)N1CCC(/C=C/c2ccc3nonc3c2)CC1` [Example 5] had a negative logarithm of the IC50 (pIC50) of at least 6.70.

Regarding `O=C1OCc2cc(/C=C/C3CCN(C(=O)Cc4ccc(-n5cnnn5)cc4)CC3)ccc21` [Example 6], the negative logarithm of the IC50 (pIC50) was at least 6.70.

Molecule `O=C1OCc2cc(CCC3CCN(C(=O)Cc4ccc(-n5cnnn5)cc4)CC3)ccc21` [Example 7, 5-[2-(1-{[4-(1H-Tetrazol-1-yl)phenyl]acetyl}piperidin-4-yl)ethyl]-2-benzofuran-1(3H)-one] showed a pIC50 of at least 6.30.

On to `O=C(Cc1ccc(-n2cnnn2)cc1)N1CCC(O)(CCc2ccc3nonc3c2)CC1` [Example 8, 1-{4-[2-(2,1,3-Benzoxadiazol-5-yl)ethyl]-4-hydroxypiperidin-1-yl}-2-[4-(1H-tetrazol-1-yl)phenyl]ethanone], for which the pIC50 was at least 6.30.

Take `N#Cc1cc(C#CC2(O)CCN(C(=O)Cc3ccc(-n4cnnn4)cc3)CC2)ccc1F` [Example 10, 2-Fluoro-5-[(4-hydroxy-1-{[4-(1H-tetrazol-1-yl)phenyl]acetyl}piperidin-4-yl)ethynyl]benzonitrile]: the pIC50 is at least 6.30.

As to `O=C(Cc1ccc(-n2cnnn2)cc1)N1CCC(Sc2ccc([N+](=O)[O-])cc2)CC1` [Example 12, 1-{4-[(4-Nitrophenyl)sulfanyl]piperidin-1-yl}-2-[4-(1H-tetrazol-1-yl)phenyl]ethanone], the pIC50 is at least 6.70.

As to `N#Cc1cc(CCC2(O)CCN(C(=O)Cc3ccc(-n4cnnn4)cc3)CC2)ccc1F` [Example 13, 2-Fluoro-5-[2-(4-hydroxy-1-{[4-(1H-tetrazol-1-yl)phenyl]acetyl}piperidin-4-yl)ethyl]benzonitrile], the pIC50 is at least 6.30.

For `N#Cc1cc(CCC2(F)CCN(C(=O)Cc3ccc(-n4cnnn4)cc3)CC2)ccc1F` [Example 14, 2-Fluoro-5-[2-(4-fluoro-1-{[4-(1H-tetrazol-1-yl)phenyl]acetyl}piperidin-4-yl)ethyl]benzonitrile], the pIC50 is at least 6.30.

Consider `CCOC(=O)C1(CCc2ccc(F)c(C#N)c2)CCN(C(=O)Cc2ccc(-n3cnnn3)cc2)CC1` [Example 15, Ethyl 4-[2-(3-cyano-4-fluorophenyl)ethyl]-1-{[4-(1H-tetrazol-1-yl)phenyl]acetyl}piperidine-4-carboxylate], for which the pIC50 is at least 6.30.

The molecule `Cc1cc(-n2cnnn2)ccc1CC(=O)N1CCC(O)(CCc2ccc(F)c(C#N)c2)CC1` [Example 18, 2-Fluoro-5-[2-(4-hydroxy-1-{[2-methyl-4-(1H-tetrazol-1-yl)phenyl]acetyl}piperidin-4-yl)ethyl]benzonitrile] gave a pIC50 of at least 6.30.

The molecule `N#Cc1cc(CCC2(CO)CCN(C(=O)Cc3ccc(-n4cnnn4)cc3)CC2)ccc1F` [Example 26, 2-Fluoro-5-{2-[4-(hydroxymethyl)-1-{[4-(1H-tetrazol-1-yl)phenyl]acetyl}piperidin-4-yl]ethyl}benzonitrile] had a pIC50 of at least 6.30.

In turn, `N#Cc1cc(CCC2(C(F)F)CCN(C(=O)Cc3ccc(-n4cnnn4)cc3)CC2)ccc1F` [Example 27, 5-{2-[4-(Difluoromethyl)-1-{[4-(1H-tetrazol-1-yl)phenyl]acetyl}piperidin-4-yl]ethyl}-2-fluorobenzonitrile] gave a pIC50 of at least 6.30.

With `N#Cc1cc(/C=C/C2(O)CCN(C(=O)Cc3ccc(-n4cnnn4)cc3)CC2)ccc1F` [Example 29, 2-Fluoro-5-[(E)-2-(4-hydroxy-1-{[4-(1H-tetrazol-1-yl)phenyl]acetyl}piperidin-4-yl)ethenyl]benzonitrile], the negative logarithm of the IC50 (pIC50) was at least 6.30.

Turning to `N#Cc1cc(CCC2(O)CCN(CCc3ccc4c(c3)COC4=O)CC2)ccc1F` [Example 30, 2-Fluoro-5-(2-{4-hydroxy-1-[2-(1-oxo-1,3-dihydro-2-benzofuran-5-yl)ethyl]piperidin-4-yl}ethyl)benzonitrile], the negative-log IC50 (pIC50) is at least 6.70.

`N#Cc1cc(CCC2(O)CCN(C(=O)Cc3ccc(-n4cnnn4)cc3C(F)(F)F)CC2)ccc1F` [Example 31, 2-Fluoro-5-[2-(4-hydroxy-1-{[4-(1H-tetrazol-1-yl)-2-(trifluoromethyl)phenyl]acetyl}piperidin-4-yl)ethyl]benzonitrile] gave a pIC50 of at least 6.30.

As to `N#Cc1c(F)ccc(C#CC2(O)CCN(C(=O)Cc3ccc(-n4cnnn4)cc3)CC2)c1F` [Example 33, 2,6-Difluoro-3-[(4-hydroxy-1-{[4-(1H-tetrazol-1-yl)phenyl]acetyl}piperidin-4-yl)ethynyl]benzonitrile], the pIC50 is at least 6.30.

Take `N#Cc1c(F)ccc(CCC2(O)CCN(C(=O)Cc3ccc(-n4cnnn4)cc3)CC2)c1F` [Example 34, 2,6-Difluoro-3-[2-(4-hydroxy-1-{[4-(1H-tetrazol-1-yl)phenyl]acetyl}piperidin-4-yl)ethyl]benzonitrile]: the pIC50 was at least 6.30.

With `Cc1c(C#CC2(O)CCN(C(=O)Cc3ccc(-n4cnnn4)cc3)CC2)ccc(F)c1C#N` [Example 36, 6-Fluoro-3-[(4-hydroxy-1-{[4-(1H-tetrazol-1-yl)phenyl]acetyl}piperidin-4-yl)ethynyl]-2-methylbenzonitrile], the pIC50 was at least 6.30.

Take `Cc1c(CCC2(O)CCN(C(=O)Cc3ccc(-n4cnnn4)cc3)CC2)ccc(F)c1C#N` [Example 37, 6-Fluoro-3-[2-(4-hydroxy-1-{[4-(1H-tetrazol-1-yl)phenyl]acetyl}piperidin-4-yl)ethyl]-2-methylbenzonitrile]: the pIC50 was at least 6.30.

Molecule `N#Cc1c(F)ccc(C#CC2(O)CCN(C(=O)Cc3ccc(-n4cnnn4)cc3)CC2)c1Cl` [Example 39, 2-Chloro-6-fluoro-3-[(4-hydroxy-1-{[4-(1H-tetrazol-1-yl)phenyl]acetyl}piperidin-4-yl)ethynyl]benzonitrile] showed a pIC50 of at least 6.30.

In turn, `N#Cc1c(F)ccc(CCC2(O)CCN(C(=O)Cc3ccc(-n4cnnn4)cc3)CC2)c1Cl` [Example 40, 2-Chloro-6-fluoro-3-[2-(4-hydroxy-1-{[4-(1H-tetrazol-1-yl)phenyl]acetyl}piperidin-4-yl)ethyl]benzonitrile] had a pIC50 of at least 6.30.

The values are drawn from US9527830B2 (Merck Sharp & Dohme Corp., priority 2011, dated 2016).
